# Like-named read-outs stand apart in the source and are kept apart here.
# Assay: Plasma concentrations of TQS-168 and TQS-621 after single oral dose 50 mg/kg in mice, three formulations
# Format: in vivo
# Details: male, C57BL/6, mouse, plasma, po, 50 mg/kg; for Cmax / AUC(0-t) / Tmax / AUC(0-inf) / half-life: mice plasma; for Cmax: read-out: Cmax; for Tmax: read-out: tmax
# Procedure: In a second experiment, mice were administered 50 mg/kg TQS-168 by oral gavage. For Group 1, TQS-168 was prepared at a concentration of 5.0 mg/mL in a suspension with […] in PBS. For Group 2, TQS-168 was prepared at a concentration of 5.0 mg/mL as a solution in 10 polyethylene glycol (PEG) 400|30 Kleptose (Roquete)|60% water.
# Plasma exposures for Group 1 mice (ng/mL) are presented in Table 2 and for Group 2 mice in Table 3.
# C57BL/6 male mice were administered a single dose of TQS-168 at 50 mg/kg using one of three formulations: Group 1-5.0 mg/ml suspension in 0.5% methylcellulose in PBS; Group 2-5.0 mg/ml solution in PEG400 (Fluka) 10%|Kleptose (Roquette) 30%|sterile water 60%; Group 3-5.0 mg/ml suspension in Labrafil M 1944 CS (Gattefosse) 30%|Masine CC (Gattefosse) 5%|Miglyol 812N 10%|sterile water 55%.
# Plasma concentrations of TQS-168 and TQS-621 were measured overtime.
# [1] = TQS-168 50 mg/kg p.o., Group 1 (suspension, 0.5% methylcellulose in PBS), individual mouse
# [2] = TQS-168 50 mg/kg p.o., Group 1 (suspension, 0.5% methylcellulose in PBS), mean
# [3] = TQS-168 50 mg/kg p.o., Group 2 (solution, PEG400/Kleptose/water), individual mouse
# [4] = TQS-168 50 mg/kg p.o., Group 2 (solution, PEG400/Kleptose/water), mean
# [5] = TQS-168 50 mg/kg p.o., Group 3 (suspension, Labrafil/Masine/Miglyol/water), individual mouse
# [6] = TQS-168 50 mg/kg p.o., Group 3 (suspension, Labrafil/Masine/Miglyol/water), mean
# [7] = mice, 50 mg/kg p.o., Group 1 (suspension, methylcellulose in PBS), individual mouse, read-out: Calculated Concentration in plasma
# [8] = mice, 50 mg/kg p.o., Group 1 (suspension, methylcellulose in PBS), mean, read-out: Calculated Concentration in plasma
# [9] = mice, 50 mg/kg p.o., Group 2 (solution, PEG 400/Kleptose/water), individual mouse, read-out: Calculated Concentration in plasma
# [10] = mice, 50 mg/kg p.o., Group 2 (solution, PEG 400/Kleptose/water), mean, read-out: Calculated Concentration in plasma
compound,measurement,setting,value
"CC(C)(C)c1ccc(-c2nc3ccccc3[nH]2)cc1 [TQS-168, 2-(4-tert-butylphenyl)-1H-benzimidazole]",Cmax,"50 mg/kg p.o., Group 1 (suspension)",4.5 µM
same,Cmax,"50 mg/kg p.o., Group 2 (solution)",8.54 µM
same,Cmax,"50 mg/kg p.o., Group 3 (suspension)",2.4 µM
same,AUC(0-t),[1],5040 ng·h/mL
same,Cmax,[1],1280 ng/mL
same,Tmax,[1],1 h
same,AUC(0-inf),[2],8110 ng·h/mL
same,AUC(0-t),[2],5970 ng·h/mL
same,half-life,[2],4.3 h
same,Cmax,[2],1120 ng/mL
same,Tmax,[2],0.833 h
same,AUC(0-inf),[3],11400 ng·h/mL
same,AUC(0-t),[3],10600 ng·h/mL
same,half-life,[3],2.81 h
same,Cmax,[3],1950 ng/mL
same,Tmax,[3],0.5 h
same,AUC(0-inf),[4],11400 ng·h/mL
same,AUC(0-t),[4],10700 ng·h/mL
same,half-life,[4],2.82 h
same,Cmax,[4],2140 ng/mL
same,Tmax,[4],0.833 h
same,AUC(0-inf),[5],4250 ng·h/mL
same,AUC(0-t),[5],4110 ng·h/mL
same,half-life,[5],1.47 h
same,Cmax,[5],611 ng/mL
same,AUC(0-inf),[6],4150 ng·h/mL
same,AUC(0-t),[6],3930 ng·h/mL
same,half-life,[6],1.71 h
same,Cmax,[6],611 ng/mL
same,Tmax,[6],3.17 h
same,concentration at 0.25 h,[7],586 ng/mL
same,concentration at 0.25 h,[8],653 ng/mL
same,concentration at 0.5 h,[8],949 ng/mL
same,concentration at 1 h,[7],1280 ng/mL
same,concentration at 1 h,[8],1100 ng/mL
same,concentration at 2 h,[8],776 ng/mL
same,concentration at 4 h,[7],435 ng/mL
same,concentration at 4 h,[8],435 ng/mL
same,concentration at 8 h,[8],446 ng/mL
same,concentration at 12 h,"mice, 50 mg/kg p.o., Group 1 (suspension, methylcellulose in PBS), 12 hr, mean, read-out: Calculated Concentration in plasma",187 ng/mL
same,concentration at 0.25 h,[9],656 ng/mL
same,concentration at 0.25 h,[10],900 ng/mL
same,concentration at 0.5 h,[9],1950 ng/mL
same,concentration at 0.5 h,[10],1960 ng/mL
same,concentration at 1 h,[9],1520 ng/mL
same,concentration at 1 h,[10],1990 ng/mL
same,concentration at 2 h,[9],1810 ng/mL
same,concentration at 2 h,[10],1760 ng/mL
same,concentration at 4 h,[9],1330 ng/mL
same,concentration at 4 h,[10],1200 ng/mL
same,concentration at 8 h,[9],374 ng/mL
